Reference: patent US6140363A, “Use of rosmarinic acid and derivatives thereof as an immunosuppressant or an inhibitor of SH2-mediated processes” (Mogam Biotechnology Research Institute, priority 1998, dated 2000)
“Also recorded” adds a separate entry of the source. Like-named read-outs stand apart in the source and are kept apart here.

Columns and labels:
[1] = system: IL-2 gene expression in Jurkat T cells; assay: TCR stimulation-induced IL-2 gene expression, IL-2-luciferase reporter system; type: cell-based; details: 8 μM, 30 min prior to T cell activation
Protocol: The effects of rosmarinic acid and derivatives thereof on the level of IL-2 gene expression were tested by using the IL-2-luciferase reporter system, in which cultured cells were transfected with a reporter plasmid. The plasmid was constructed by fusion of the IL-2 promoter sequence with the structural gene of luciferase. […] Cells were activated by incubation for 14 h on a 35 mm dish coated with 5 μg/ml anti-CD3 antibody (UCHT1, Pharmingen) and/or anti-CD4 antibody (RPA-T4, Pharmingen) and then harvested. For PMA plus Iononycin stimulation, 5 ng/ml of PMA and 500 ng/ml of lonomycin were added to the culture media and incubated for 14 h. Luciferase activity was determined three times in duplicate for each experiment with a Berthold luminometer LB953.

SPF SD type rat = assay: parenteral administration test for acute toxicity; type: in vivo
From the text: Acute toxicity was examined using 6week-old SPF SD type rat. As liposomal form, I g/kg of rosmarinic acid, rosmarinyl isopropyl ester, rosmarinyl ethyl ester, (S)-rosmarinyl bis(tert-butyldimethylsilyl)ether or (S)-rosmarinic acid was intramuscularly injected into two […] per experimental group.

[2] = system: DNFB-induced contact hypersensitivity; assay: contact hypersensitivity response to DNFB, ear thickness; type: in vivo, Balb/c female mice; details: intramuscular, 6 consecutive days during induction phase; rosmarinic acid 5-50 mg/kg/day
Protocol: In vivo test procedure evaluating the immunosuppressive activity was performed using contact hypersensitivity response to DNEB (2,4-dinitroflourobenzene). […] This is an antigen-specific T cell-mediated inflammatory response that represents delayed-type hypersensitivity (DTH) reactions seen in both humans and other mammals. The contact sensitivity animal model is used routinely in many laboratories for pharmacological screening of anti-inflammatory agents and agents for the treatment of autoimmune diseases. […] The procedure is summarized as following. Balb/c female mice were used at 8 weeks of age. Twenty μl of 0.5% DNFB (Sigma Chemical Co.) in 4:1 diluted acetone: olive oil (Sigma Chemical Co.) was painted on each shaved abdominal skin for 2 successive days. Four days later, the mice were challenged by applying 10 μl of 0.2% DNFB in the same vehicle to each side of each ear. Cydosporin A and rosmarinic acid were treated through intramuscular administration at the indicated doses from 0 to 5 day. Ear thickness was measured using engineer's micrometer (Mitutoyo Co. Mfg. Ltd., Tokyo) 24 h after postchallenge.

[3] = system: C57BL/6 tail-skin graft on Balb/c recipient mice; assay: skin allograft rejection, survival time of skin graft; type: in vivo
Protocol: In vivo procedure evaluated the survival time of a skin graft.
Experimental allograft rejection was performed by grafting allogeneic C57BL/6 (H-2b) mouse tail-skin onto Balb/c (H-2d) recipient mice. Rosmarinic acid and derivative thereof were administered intramuscularly from the day of the transplantation until rejection. […] Full-thickness donor (C57BL/6) tail skin grafts (square pieces 2.0×2.0 cm) were transplanted onto the lateral thorax of recipient mice (Balb/C) and covered with sterile bactericidal gauze. The entire chest was then wrapped with an elastic bandage. […] Skin graft were monitored daily after the removal of the bandage on day 6. Rejection was defined as more than 90% necrosis of the graft epithelium.

Lck SH2 domain = biological target: T1, Lck SH2 domain (Homo sapiens, UniProt P06239); assay: in vitro binding between Lck SH2 domain (GST fusion) and biotinylated phosphotyrosyl peptide
T1 construct: Lck SH2 domain expressed and purified as a fusion protein with Glutathione-S-transferase; made in house
From the text: A novel screening system was developed in the present invention to screen a substance inhibiting the interaction between Lck SH2 domain and its ligand. In the binding assay, Lck SH2 domain expressed and purified as a fusion protein with Glutathione-S-transferase (GSI) were covalently attached to 96-well microtitre plates through amide bond formation. The immobilized proteins were subsequently allowed to bind biotinylated phosphotyrosine (Y)-containing synthetic peptide (biotin-[…]pYEEIPI) known as a high affinity ligand for the Lck SH2 domain.
For attachment to 96-well microtitre plate, 1 μM of purified fusion protein (GST-Lck SH2) was reacted for 2 hours at room temperature. Added to the binding assay were 1 μM of the biotinylated synthetic peptide (the ligand of Lck SH2 domain) and a candidate for the inhibitor. The candidates were thousands of natural products including various kinds of Streptoryces, fungi and herbs extract. Binding reaction was performed for 2 hours at room temperature, allowing the competitive inhibition of the binding between GST-Lck SH2 and the peptide ligand. Then peroxidase-conjugated streptavidin (Pierce, USA) was added into the mixture so that added conjugates can be bound to biotinylated peptide. After unbound conjugates were washed, coloring reaction was performed to measure the activity of immobilized peroxidase, or the binding activity of the peptide to SH2 domain in the presence of the candidate added. More particularly, the coloring reaction was initiated by adding 3,3,5,5-tetramethyl benzidine (substrate) to the reaction mixture. After 30 minutes, the reaction was stopped by adding 0.8M sulfuric acid, and immediately brought to the spectrophotometry of measuring absorbance at 450 nm.
Various concentrations (0.03~300 μg/ml) of rosmarinic acid solution, which was isolated from Prunella vulgaris or derivatives thereof, were added to the protein-coated micro-well mixed with phosphopeptide solution. The binding of biotiyated pY peptides was detected by the streptavidin-conjugated horseradish peroxidase (HRP).

[4] = system: IL-1β, IL-2, IL-4, IL-6 and IFN-γ mRNA; assay: cytokine mRNA in renal allografts, semi-quantitative RT-PCR; type: in vivo, mice; details: renal allograft day 7, i.m. daily 7 days, rosmarinic acid 25, Cyclosporin A 50 mg/kg/day
From the text: Balb/c recipients transplanted from C57BL/6 donor were killed at 7 day after the subcapsular kidney transplantation. Renal allografts were harvested and total cellular RNA was extracted and analyzed for the expression of various cytokine mRNA. Using a serniquantitative PCR method, we temporally analyzed mRNA levels of IL-1β, IL-2, IL-4, IL-6 and IFN-γ.
The cytokine levels of PCR products were normalized by β-actin mRNA used as a control.
Kidney fragments (C57BL/6) were transplanted to allogeneic mice (Balb/C) using subcapsular kidney transplantation technique.
Total RNA from the grafts was isolated using TRIZOL® LS Reagent (Life Technologies), incubated at room temperature for 15 min after addition of chloroform, extracted with phenol/chloroform, and precipitated with isopropanol. Isolated total RNA was then quantitated spectrophotometrically. Total RNA from the graft (1 μg) was performed using Titan™ One Tube RT-PCR System (BM) according to the manufacture's protocol. The PCR was done in a 50 μl volume containing 1× RT-PCR buffer with Mg^2+, 0.2 mM each dNTP(dATP, dGTP, dCTP and dTTP), 10U RNase inhibitor, enzyme mix (AMV and Expand™ High Fidelity PCR-System),5 mM DTT solution and 0.4 μM appropriate primer pair. Primer sequences for IL-2, IFN-γ, IL-4, IL-6, IL-1β and β-actin were obtained from previous reports. […] The number of amplification cycles was 25. An aliquot (15 μl) of the PCR product was electrophoresed on 2% agarose gel, and amplified DNA fragments were stained with ethidium bromide.

Jurkat cells = assay: intracellular calcium signaling activated by anti-CD3 and anti-CD4 antibodies (Fura-2/AM); type: cell-based; details: 0.5-50 μg for 10 minutes, then anti-CD3 and anti-CD4 antibodies
Protocol: Fura-2/AM (Calbiochem, San Diego, Calif., USA), a fluorescent indicator of intracellular calcium, was loaded into Jurkat cells, and various amounts (0.5 μg, 1 μg, 10 μg, 50 μg) of rosmarinic acid, isolated from Prunella vulgaris, was treated to the cells for 10 minutes. The cells were treated with anti-CD3 and anti-CD4 antibodies, and then the fluctuation of intracellular calcium level was recorded by the amount of fluorescence emitted from the cells.

[5] = 1 g/kg intramuscular, liposomal form
[6] = GST-Lck SH2, 1 μM biotinylated pY peptide, 0.03~300 μg/ml tested, read-out: half-maximal inhibitory concentration (IC50) of binding to Lck SH2 domain (converted)

T1 sequence (P06239 127-224 limits assumed): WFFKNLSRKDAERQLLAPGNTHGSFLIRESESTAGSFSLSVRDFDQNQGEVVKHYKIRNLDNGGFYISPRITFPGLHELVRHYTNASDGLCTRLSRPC

In the case of `CC(C)(C)[Si](C)(C)Oc1ccc(/C=C/C(=O)O[C@@H](Cc2ccc(O)c(O)c2)C(=O)O)cc1O[Si](C)(C)C(C)(C)C` [(S)-Rosmarinyl bis(tert-butyldimethylsilyl)ether], the “inhibition of TCR-induced IL-2 gene expression (luciferase activity)” value (“inhibition” for short) [1] is reported as “inhibited as much as rosmarinic acid”, the “acute toxic effect (clinic symptom, weights, blood test, autopsy)” value (“acute toxic effect” for short) (SPF SD type rat; [5]) is reported as “did not elicit any toxic effect” and the “survival after acute dose” value (SPF SD type rat; [5]) is reported as “all tested animals were survived”. For the same compound, the “suppression of DNFB-induced contact hypersensitivity” value (“suppression” for short) [2] was “dose-dependent suppression”, the “MST ± SD” value ([3]; 15 mg/kg/day i.m.) was 13.2 ± 1.6 days and the IC50 (Lck SH2 domain; read-out: half-maximal inhibitory concentration (IC50) of binding to Lck SH2 domain, GST-Lck SH2, 1 μM biotinylated pY peptide, 0.03~300 μg/ml tested) was 22.1 µM.
For `O=C(/C=C/c1ccc(O)c(O)c1)O[C@@H](Cc1ccc(O)c(O)c1)C(=O)O` [(S)-rosmarinic acid], the “inhibition” value [1] was “inhibited as much as rosmarinic acid”, the “acute toxic effect” value (SPF SD type rat; [5]) was “did not elicit any toxic effect” and the “survival after acute dose” value (SPF SD type rat; [5]) was “all tested animals were survived”. For the same compound, the “suppression” value [2] was “dose-dependent suppression”, the “MST ± SD” value ([3]; 15 mg/kg/day i.m.) was 14.8 ± 1.5 days and the IC50 (Lck SH2 domain) was 27.8 µM.
For `O=C(/C=C/c1ccc(O)c(O)c1)OC(Cc1ccc(O)c(O)c1)C(=O)O` (centres unmarked) [Rosmarinic acid, rosmarinic acid], the “inhibition” value [1] was “more efficiently than other immunosuppressants did”, the “acute toxic effect” value (SPF SD type rat; [5]) was “did not elicit any toxic effect” and the “survival after acute dose” value (SPF SD type rat; [5]) was “all tested animals were survived”. For the same compound, the “suppression” value [2] was “dose-dependently suppressed”, the “IFN-γ mRNA transcription in allograft transplants” value [4] was “markedly inhibited” and the “IL-1β mRNA transcription in allograft transplants” value ([4]; 50 mg/kg/day) was “markedly inhibited; also recorded: more potent activity than that of Cyclosporin A”. For the same compound, the “IL-2 mRNA transcription in allograft transplants” value ([4]; 50 mg/kg/day) was “markedly inhibited; also recorded: more potent activity than that of Cyclosporin A”, the “IL-4 mRNA transcription in allograft transplants” value ([4]; 50 mg/kg/day) was “markedly inhibited; also recorded: significantly reduced” and the “IL-6 mRNA transcription in allograft transplants” value ([4]; 50 mg/kg/day) was “markedly inhibited; also recorded: significantly reduced”. The “inhibitory effect on intracellular calcium level” value (Jurkat cells) was “dose-dependent inhibitory effect”, the “MST ± SD” value ([3]; 15 mg/kg/day i.m.) was 14.0 ± 1.0 days and the “MST ± SD” value ([3]; 15 mg/kg/day i.m., listed as rosmarinic acid) was 14.0 days. The “MST ± SD” value ([3]; 25 mg/kg/day i.m.) was 18.8 ± 3.6 days and the IC50 (Lck SH2 domain) was 8.33 µM.
For `CCOC(=O)C(Cc1ccc(O)c(O)c1)OC(=O)/C=C/c1ccc(O)c(O)c1` (centres unmarked) [Rosmarinyl ethyl ester], the “inhibition” value [1] was “inhibited as much as rosmarinic acid”, the “acute toxic effect” value (SPF SD type rat; [5]) was “did not elicit any toxic effect” and the “survival after acute dose” value (SPF SD type rat; in vivo) was “all tested animals were survived”. For the same compound, the “suppression” value [2] was “dose-dependent suppression”, the “MST ± SD” value ([3]; 15 mg/kg/day i.m.) was 14.4 ± 1.8 days and the IC50 (Lck SH2 domain; [6]) was 10.3 µM.
In the case of `CC(C)OC(=O)C(Cc1ccc(O)c(O)c1)OC(=O)/C=C/c1ccc(O)c(O)c1` (centres unmarked) [Rosmarinyl isopropyl ester], the “inhibition” value [1] is reported as “inhibited as much as rosmarinic acid”, the “acute toxic effect” value (SPF SD type rat; [5]) is reported as “did not elicit any toxic effect” and the “survival after acute dose” value (SPF SD type rat; in vivo) is reported as “all tested animals were survived”. The “suppression” value [2] was “dose-dependent suppression”, the “MST ± SD” value ([3]; 15 mg/kg/day i.m.) was 14.2 ± 1.8 days and the IC50 (Lck SH2 domain; [6]) was 2.49 µM.
